US20200405868A1, “GEL-FORMING POLYPEPTIDES” (priority 2018, published 2020)
Where a SMILES comes first, the peptide text is derived from it. Bridges are numbered along the chain shown (N, C = ends). [ ]: non-standard residue; d: D form. The star is where a group is joined. Palmitoyl = CCCCCCCCCCCCCCCC(=O)*; AEEA = NCCOCCOCC(=O)O

Key:
[1] = Compound gel-forming ability in water (visual inspection, tube tapping assay, tilted tube assay); type: physicochemical;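 further: peptides mixed with de-ionized water at about 22-25 °C, judged after 20 min by eye plus tube tapping (10 taps, moves counted) and 90° tilt mobility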
[2] = target: kappa opioid receptor (OPRK1) (Homo sapiens, UniProt P41145); test: OPRK1 cAMP assay (Discoverx), agonistic; type: cell-based
Chain of kappa opioid receptor (OPRK1) (P41145 whole entry): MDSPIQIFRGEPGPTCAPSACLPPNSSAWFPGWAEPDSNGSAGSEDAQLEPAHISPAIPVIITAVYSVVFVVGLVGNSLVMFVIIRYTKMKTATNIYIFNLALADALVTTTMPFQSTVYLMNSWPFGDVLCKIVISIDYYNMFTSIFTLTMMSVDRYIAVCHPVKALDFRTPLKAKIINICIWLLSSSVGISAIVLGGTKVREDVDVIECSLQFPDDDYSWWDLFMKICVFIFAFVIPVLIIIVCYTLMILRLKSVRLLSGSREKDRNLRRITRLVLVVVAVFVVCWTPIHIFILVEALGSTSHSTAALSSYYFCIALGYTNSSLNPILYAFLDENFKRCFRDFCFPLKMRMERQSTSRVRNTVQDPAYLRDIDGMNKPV
Experimental: (§1) The agonistic activities toward MC1R, MC4R, CRHR2, PTHR1, and OPRK1 were assyed with an MC1R cAMP assay, an MC4R cAMP assay, a CRHR2 cAMP assay, a PTHR1 cAMP assay and an OPRK1 cAMP assay from Discoverx Inc. (Fremont, Calif.), respectively. The antagonistic activities toward bradykinin receptor 2 (BDKRB2) and GnRH receptor (GnRHR or LHRHR) were assayed with a BDKRB2 arrestin assay and a GnRHR calcium flux assay from Discoverx, respectively.
(§2) For the analysis of Gs-coupled cAMP production, cAMP Hunter cell lines were expanded from freezer stocks, and cells were seeded in a total volume of 20 μL into white walled, 384-well microplates and incubated at 37 C for the appropriate time prior to testing. The cAMP modulation was determined using the DiscoverX HitHunter cAMP XS+ assay. For agonistic activity determination, cells were incubated with sample to induce response. Media was aspirated from cells and replaced with 15 μL 2:1 HBSS/10 mM Hepes: cAMP XS+ Ab reagent. […] The compound activity was analyzed using a CBIS data analysis suite (ChemInnovation, CA). For Gs-coupled agonistic assays, percentage activity is calculated using the following formula: % Activity=100%×(mean RLU of test sample−mean RLU of vehicle control)/(mean RLU of MAX control−mean RLU of vehicle control).

[3] = target: melanocortin receptor 4 (MC4R) (Homo sapiens, UniProt P32245); test: MC4R cAMP assay (Discoverx), agonistic; type: cell-based
Chain of melanocortin receptor 4 (MC4R) (P32245 whole entry): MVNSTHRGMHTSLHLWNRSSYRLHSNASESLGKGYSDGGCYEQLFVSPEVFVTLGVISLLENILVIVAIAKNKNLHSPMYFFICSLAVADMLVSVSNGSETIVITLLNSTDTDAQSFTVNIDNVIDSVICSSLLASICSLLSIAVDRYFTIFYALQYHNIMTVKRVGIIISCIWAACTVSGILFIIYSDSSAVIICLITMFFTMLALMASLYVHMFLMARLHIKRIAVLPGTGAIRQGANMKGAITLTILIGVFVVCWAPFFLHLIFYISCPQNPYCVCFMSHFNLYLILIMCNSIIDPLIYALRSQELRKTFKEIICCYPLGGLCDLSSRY
Experimental: as §1, §2

In the case of `CCCCCCCCCCCCCCCC(=O)N[C@@H](CO)C(=O)N[C@@H](CO)C(=O)N1CCC[C@H]1C(=O)N[C@@H](Cc1c[nH]cn1)C(=O)N[C@@H](CO)C(=O)N[C@@H](Cc1ccc(O)cc1)C(=O)NCCOCCOCC(=O)N[C@H](Cc1ccccc1)C(=O)N[C@H](Cc1ccccc1)C(=O)N[C@@H](Cc1c[nH]c2ccccc12)C(=O)N[C@H](CCCNC(=N)N)C(=O)O` [SEQ ID NO:214, Pal-SSPHSY-miniPEG-(D-Phe)-(D-Phe)-Trp-(D-Arg)] (Palmitoyl-SSPHSY[AEEA][dF][dF]W[dR]-OH; N-terminus and C-terminus assumed), the “gel formation at 3% w/w” value ([1]; 3% w/w in water) is reported as “liquid gel”, the “gel formation at 6% w/w” value ([1]; 6% w/w in water) is reported as “semisolid gel” and the “gel formation at 11% w/w” value ([1]; 11% w/w in water) is reported as “semisolid gel”. For the same molecule, the “gel formation in aqueous solution, 6%” value ([1]; Table 3, 6% w/w) was “SS (SS for semisolid gel)”, the “gel formation in aqueous solution, 11%” value ([1]; Table 3, 11% w/w) was “SS (SS for semisolid gel)” and the “propensity to form gels, chimeric or mutated polypeptides, 6%” value ([1]; Table 5, 6% w/w) was “SS (An ability to form semisolid gel is represented by an SS)”. The “propensity to form gels, chimeric or mutated polypeptides, 11%” value ([1]; Table 5, 11% w/w) was “SS (An ability to form semisolid gel is represented by an SS)” and the “Max Activity % of positive control” value [2] was 62 % of positive control.
For `CCCCCCCCCCCCCCCC(=O)N[C@@H](Cc1c[nH]cn1)C(=O)N[C@@H](CO)C(=O)N[C@@H](Cc1ccc(O)cc1)C(=O)N[C@@H](CCCNC(=N)N)C(=O)N[C@H]1CSSC[C@@H](C(N)=O)NC(=O)[C@H](Cc2c[nH]c3ccccc23)NC(=O)[C@H](CCCNC(=N)N)NC(=O)[C@@H](Cc2ccccc2)NC(=O)[C@H](Cc2c[nH]cn2)NC(=O)[C@@H](C)NC1=O` [SEQ ID NO:228, Pal-HSYRC-(D-Ala)-H-(D-Phe)-RWC-NH2] (Palmitoyl-HSYRC[dA]H[dF]RWC-NH2; disulfide 5-11 (inferred)), the “Max Activity % of positive control” value [3] was 115 % of positive control.
